Where a name gives a salt, the structure may show the parent alone.
Assay: in vitro
Details: rat, gh3-tre-luc cells

For `O=C(O)C(O)[C@H](O)[C@@H](O)[C@H](O)[C@H](O)CO` (stereo partly drawn) [D-Gluco-heptonic acid, monosodium salt], the CC50 at 24 h (AC50 (uM) modified / 1000) was over 90 µM.

For `OC[C@H]1OC(O)[C@H](O)[C@@H](O)[C@@H]1O` (stereo partly drawn) [D-Glucose], the CC50 at 24 h (AC50 (uM) modified / 1000) was over 90 µM.

With `O=C[C@H](O)[C@H]1OC(=O)[C@@H](O)[C@H]1O` [D-Glucuronolactone] the CC50 at 24 h (AC50 (uM) modified / 1000) was over 90 µM.

`N[C@H](CCC(=O)O)C(=O)O` [D-Glutamic acid] showed a CC50 at 24 h (AC50 (uM) modified / 1000) of over 50 µM.

`NC(=O)CC[C@@H](N)C(=O)O` [D-Glutamine] showed a CC50 at 24 h (AC50 (uM) modified / 1000) of over 50 µM.

`CC[C@@H](C)[C@@H](N)C(=O)O` [D-Isoleucine] gave a CC50 at 24 h (AC50 (uM) modified / 1000) of over 50 µM.

`C[C@@H](O)C(=O)O` [D-Lactic acid] showed a CC50 at 24 h (AC50 (uM) modified / 1000) of over 100 µM.

Molecule `OC[C@@H](O)[C@@H](O[C@@H]1O[C@H](CO)[C@H](O)[C@H](O)[C@H]1O)[C@H](O)[C@@H](O)CO` [D-Lactitol monohydrate] has a CC50 at 24 h (AC50 (uM) modified / 1000) of over 90 µM.

In the case of `CC(C)C[C@@H](N)C(=O)O` [D-Leucine], the CC50 at 24 h (AC50 (uM) modified / 1000) is reported as over 50 µM.

Molecule `C=C(C)[C@H]1CC=C(C)CC1` [D-Limonene] has a CC50 at 24 h (AC50 (uM) modified / 1000) of over 90 µM.

`OC[C@@H](O)[C@@H](O)[C@H](O)[C@H](O)CO` [D-Mannitol] showed a CC50 at 24 h (AC50 (uM) modified / 1000) of over 90 µM.

For `CN1CCC[C@@H]1c1cccnc1` [D-Nicotine], the CC50 at 24 h (AC50 (uM) modified / 1000) was over 50 µM.

Molecule `CC(C)(S)[C@@H](N)C(=O)O` [D-Penicillamine] has a CC50 at 24 h (AC50 (uM) modified / 1000) of over 50 µM.

Molecule `N[C@H](CO)C(=O)O` [D-Serine] has a CC50 at 24 h (AC50 (uM) modified / 1000) of over 50 µM.

`O=C(CO)[C@@H](O)[C@@H](O)[C@H](O)CO` [D-Tagatose] showed a CC50 at 24 h (AC50 (uM) modified / 1000) of over 50 µM.

With `CC(C)[C@@H](N)C(=O)O` [D-Valine] the CC50 at 24 h (AC50 (uM) modified / 1000) was over 50 µM.

For `OC1OC[C@@H](O)[C@H](O)[C@H]1O` (stereo partly drawn) [D-Xylose], the CC50 at 24 h (AC50 (uM) modified / 1000) was over 90 µM.

Molecule `Cc1cc(O)cc2c1O[C@](C)(CCC[C@H](C)CCC[C@H](C)CCCC(C)C)CC2` [D-delta-Tocopherol] has a CC50 at 24 h (AC50 (uM) modified / 1000) of over 50 µM.

`CCN(CC)C(=O)c1cccc(C)c1` [DEET] showed a CC50 at 24 h (AC50 (uM) modified / 1000) of over 90 µM.

For `CN(C)/N=N/c1[nH]cnc1C(N)=O` [Dacarbazine], the CC50 at 24 h (AC50 (uM) modified / 1000) was over 90 µM.

For `O=c1c(-c2ccc(O)cc2)coc2cc(O)ccc12` [Daidzein], the CC50 at 24 h (AC50 (uM) modified / 1000) was over 90 µM.

`CC(Cl)(Cl)C(=O)O` [Dalapon-sodium] showed a CC50 at 24 h (AC50 (uM) modified / 1000, Tox21_110001=Tox21_201112, viability, 1 nM T3 present, 24 h) of over 90 µM.

For `CCNC(=O)NCCCOc1cccc(CN2CCCCC2)c1` [Dalcotidine], the CC50 at 24 h (AC50 (uM) modified / 1000) was over 50 µM.

`O=C(O)Cc1ccc(CCNS(=O)(=O)c2ccc(Cl)cc2)cc1` [Daltroban] gave a CC50 at 24 h (AC50 (uM) modified / 1000) of over 50 µM.

`CN(C)NC(=O)CCC(=O)O` [Daminozide] showed a CC50 at 24 h (AC50 (uM) modified / 1000, Tox21_110001=Tox21_202199, viability, 1 nM T3 present, 24 h) of over 90 µM.

`C#C[C@]1(O)CC[C@H]2[C@@H]3CCC4=Cc5oncc5C[C@]4(C)[C@H]3CC[C@@]21C` [Danazol] gave a CC50 at 24 h (AC50 (uM) modified / 1000) of 57.4 µM.

Molecule `CN1C[C@@H]2C[C@H]1CN2c1cc2c(cc1F)c(=O)c(C(=O)O)cn2C1CC1` [Danofloxacin] has a CC50 at 24 h (AC50 (uM) modified / 1000) of over 50 µM.

Work on `O=C1c2cccc(O)c2C(=O)c2c(O)cccc21` [Danthron] yielded a CC50 at 24 h (AC50 (uM) modified / 1000) of over 90 µM.

With `Cc1ccccc1N1CCN(CCc2nnc3n2CCCC3)CC1` [Dapiprazole hydrochloride] the CC50 at 24 h (AC50 (uM) modified / 1000) was over 50 µM.

Work on `Nc1ccc(S(=O)(=O)c2ccc(N)cc2)cc1` [Dapsone] yielded a CC50 at 24 h (AC50 (uM) modified / 1000) of over 50 µM.

In the case of `CC(C)(C)c1cc(/C=C2\SC(N)=NC2=O)cc(C(C)(C)C)c1O` [Darbufelone mesylate], the CC50 at 24 h (AC50 (uM) modified / 1000) is reported as 23.6 µM.

`NC(=O)C(c1ccccc1)(c1ccccc1)[C@@H]1CCN(CCc2ccc3c(c2)CCO3)C1` [Darifenacin hydrobromide] gave a CC50 at 24 h (AC50 (uM) modified / 1000) of 14.7 µM.

For `CC(C)CN(C[C@@H](O)[C@H](Cc1ccccc1)NC(=O)O[C@H]1CO[C@H]2OCC[C@H]21)S(=O)(=O)c1ccc(N)cc1` [Darunavir], the CC50 at 24 h (AC50 (uM) modified / 1000) was over 50 µM.

For `Cc1nc(Nc2ncc(C(=O)Nc3c(C)cccc3Cl)s2)cc(N2CCN(CCO)CC2)n1` [Dasatinib], the CC50 at 24 h (AC50 (uM) modified / 1000) was 15.8 µM.

In the case of `COc1cccc2c1C(=O)c1c(O)c3c(c(O)c1C2=O)C[C@@](O)(C(C)=O)C[C@@H]3O[C@H]1C[C@H](N)[C@H](O)[C@H](C)O1` [Daunomycin hydrochloride], the CC50 at 24 h (AC50 (uM) modified / 1000) is reported as 0.244 µM.

In the case of `Cc1c(Cn2ccnc2)c2ccccc2n1CCC(=O)O` [Dazmegrel], the CC50 at 24 h (AC50 (uM) modified / 1000) is reported as over 50 µM.

`CN1CSC(=S)N(C)C1` [Dazomet] gave a CC50 at 24 h (AC50 (uM) modified / 1000, Tox21_110001=Tox21_201236, viability, 1 nM T3 present, 24 h) of 5.54 µM and a CC50 at 24 h (AC50 (uM) modified / 1000, Tox21_110001=Tox21_300990, viability, 1 nM T3 present, 24 h) of 34.4 µM.

Work on `O=C(O)c1ccc(OCCn2ccnc2)cc1` [Dazoxiben] yielded a CC50 at 24 h (AC50 (uM) modified / 1000) of over 50 µM.

`N=C(N)N1CCc2ccccc2C1` [Debrisoquin sulfate] showed a CC50 at 24 h (AC50 (uM) modified / 1000) of over 50 µM.

`C1CCC2CCCCC2C1` (stereo not drawn) [Decalin] gave a CC50 at 24 h (AC50 (uM) modified / 1000) of over 90 µM.

With `C[N+](C)(C)CCCCCCCCCC[N+](C)(C)C` [Decamethonium bromide] the CC50 at 24 h (AC50 (uM) modified / 1000) was over 50 µM.

With `C[Si]1(C)O[Si](C)(C)O[Si](C)(C)O[Si](C)(C)O[Si](C)(C)O1` [Decamethylcyclopentasiloxane] the CC50 at 24 h (AC50 (uM) modified / 1000) was over 90 µM.

`CCCCCCCCCC=O` [Decanal] showed a CC50 at 24 h (AC50 (uM) modified / 1000) of over 90 µM.

`CCCCCCCCCC` [Decane] gave a CC50 at 24 h (AC50 (uM) modified / 1000) of over 90 µM.

With `O=C(O)CCCCCCCCC(=O)O` [Decanedioic acid] the CC50 at 24 h (AC50 (uM) modified / 1000) was over 90 µM.

For `CCCCCCCCCC#N` [Decanenitrile], the CC50 at 24 h (AC50 (uM) modified / 1000) was over 90 µM.

In the case of `CCCCCCCCCC(=O)NO` [Decanohydroxamic acid], the CC50 at 24 h (AC50 (uM) modified / 1000) is reported as over 50 µM.

With `CCCCCCCCCC(=O)O` [Decanoic acid] the CC50 at 24 h (AC50 (uM) modified / 1000) was over 50 µM.

For `Nc1ncn([C@H]2C[C@H](O)[C@@H](CO)O2)c(=O)n1` [Decitabine], the CC50 at 24 h (AC50 (uM) modified / 1000) was over 50 µM.

For `CCCCCCCCCCOCC(O)CN` (stereo not drawn) [Decominol hydrochloride], the CC50 at 24 h (AC50 (uM) modified / 1000) was 6.25 µM.

Molecule `CCCCCCCCCCOc1cc2c(O)c(C(=O)OCC)cnc2cc1OCC` [Decoquinate] has a CC50 at 24 h (AC50 (uM) modified / 1000) of over 50 µM.

`CCCCCCCCCCOC(C)=O` [Decyl acetate] gave a CC50 at 24 h (AC50 (uM) modified / 1000) of over 90 µM.

In the case of `CCCCCCCCCCO[C@@H]1O[C@H](CO)[C@@H](O)[C@H](O)[C@H]1O` [Decyl beta-D-glucopyranoside], the CC50 at 24 h (AC50 (uM) modified / 1000) is reported as over 90 µM.

`C=C(C)C(=O)OCCCCCCCCCC` [Decyl methacrylate] gave a CC50 at 24 h (AC50 (uM) modified / 1000) of over 90 µM.

With `C=CC(=O)OCCCCCCCCCC` [Decyl prop-2-enoate] the CC50 at 24 h (AC50 (uM) modified / 1000) was over 90 µM.

In the case of `CC(C)Nc1nc(N)nc(Cl)n1` [Deethylatrazine], the CC50 at 24 h (AC50 (uM) modified / 1000) is reported as over 90 µM.

Molecule `O=C(O)c1ccc(-n2nc(-c3ccccc3O)nc2-c2ccccc2O)cc1` [Deferasirox] has a CC50 at 24 h (AC50 (uM) modified / 1000) of 41.8 µM.

`Cc1c(O)c(=O)ccn1C` [Deferiprone] showed a CC50 at 24 h (AC50 (uM) modified / 1000) of over 50 µM.

With `CC(=O)N(O)CCCCCNC(=O)CCC(=O)N(O)CCCCCNC(=O)CCC(=O)N(O)CCCCCN` [Deferoxamine mesylate] the CC50 at 24 h (AC50 (uM) modified / 1000) was over 20 µM.

In the case of `CC(=O)OCC(=O)[C@@]12N=C(C)O[C@@H]1C[C@H]1[C@@H]3CCC4=CC(=O)C=C[C@]4(C)[C@H]3[C@@H](O)C[C@@]12C` [Deflazacort], the CC50 at 24 h (AC50 (uM) modified / 1000) is reported as over 90 µM.

For `CC(C)c1ccc2c(c1)CC[C@H]1[C@](C)(CN)CCC[C@]21C` [Dehydroabietylamine acetate], the CC50 at 24 h (AC50 (uM) modified / 1000) was 10.1 µM.

For `CC(=O)C1C(=O)C=C(C)OC1=O` (stereo not drawn) [Dehydroacetic acid], the CC50 at 24 h (AC50 (uM) modified / 1000) was over 90 µM.

For `C[C@H](CCC(=O)O)[C@H]1CC[C@H]2[C@@H]3C(=O)C[C@@H]4CC(=O)CC[C@]4(C)[C@H]3CC(=O)[C@]12C` [Dehydrocholic acid], the CC50 at 24 h (AC50 (uM) modified / 1000) was over 50 µM.

Molecule `CC(=O)O[C@H]1CC[C@@]2(C)C(=CC[C@@H]3[C@@H]2CC[C@]2(C)C(=O)CC[C@@H]32)C1` [Dehydroepiandrosterone acetate] has a CC50 at 24 h (AC50 (uM) modified / 1000, Tox21_110001=Tox21_110485, viability, 1 nM T3 present, 24 h) of over 20 µM and a CC50 at 24 h (AC50 (uM) modified / 1000, Tox21_110001=Tox21_200963, viability, 1 nM T3 present, 24 h) of over 90 µM.

`C[C@]12CC[C@H](O)CC1=CC[C@@H]1[C@@H]2CC[C@]2(C)C(=O)CC[C@@H]12` [Dehydroepiandrosterone] showed a CC50 at 24 h (AC50 (uM) modified / 1000) of over 90 µM.

Molecule `CCNc1nc(N)nc(Cl)n1` [Deisopropylatrazine] has a CC50 at 24 h (AC50 (uM) modified / 1000) of over 90 µM.

`CCOC(=O)[C@H](CCc1ccccc1)N[C@@H](C)C(=O)N(CC(=O)O)C1Cc2ccccc2C1` [Delapril hydrochloride] gave a CC50 at 24 h (AC50 (uM) modified / 1000) of over 50 µM.

From article PMC6792352, “Limited Chemical Structural Diversity Found to Modulate Thyroid Hormone Receptor in the Tox21 Chemical Library” (Environmental Health Perspectives, 2019)
